Starred links: 1 amine or outer side, 2 acyl side, 3 side chain; linkers in the order of their positions; H or OH if unused. Non-standard residues stand in square brackets, D forms with d. Groups on a side chain read outwards from the residue. Primed or numbered codes have the meaning given here. No end group written: not given here. *: point of attachment. alkynylpropionyl = alkynylpropionyl (alkyne-ethyl) group on the N-terminal spacer, reacted by CuAAC with the azide; PEG4′ = PEGylated amino acid with four EG (ethylene glycol) repeats; C16 diacid = O=C(O)CCCCCCCCCCCCCCC(=O)*; γGlu = O=C(O)[C@H](CCC(=O)[*:2])N[*:1]; Palmitoyl = CCCCCCCCCCCCCCCC(=O)*; Azidoacetyl = [N-]=[N+]=NCC(=O)*; Aib = CC(C)(N)C(=O)O
Key:
INS-1 cells = test: Alamar Blue cell viability / proliferation of INS-1 cells; assay type: cell-based, rat; conditions: 30 mM glucose, 100 nM, 24, 48 and 72 hours, compared with liraglutide, FIG. 19
Experimental: The cultured INS-1 cells were seeded at a density of 2×10^4 cells/well into 96-well plate in culture medium containing 10% […] bovine serum. After 48 hours, the cells were further incubated for another 24 hours for serum starvation. […] The cells cultured in normal medium being used as a control.
After being incubated for 24, 48 and 72 hours, the cell viability was then determined by Alamar Blue cell viability reagent kit (Invitrogen) in accordance with the manufacturer's instruction.
The cell proliferation ratio (see FIG. 19) was a ratio of the cell viability at multiple time points compared to 0 hour.

GLP-1 receptor = target: T1, GLP-1 receptor (Rattus norvegicus, UniProt P32301); test: GLP-1R-mediated cAMP generation in INS-1 cells (cAMP ELISA kit); assay type: cell-based; conditions: 100 nM, 2.5 mM glucose, 20 min, 37° C., FIG. 17
T1 construct: endogenous in cells; host or cells: rat INS-1 cells
T1 sequence (P32301 22-463): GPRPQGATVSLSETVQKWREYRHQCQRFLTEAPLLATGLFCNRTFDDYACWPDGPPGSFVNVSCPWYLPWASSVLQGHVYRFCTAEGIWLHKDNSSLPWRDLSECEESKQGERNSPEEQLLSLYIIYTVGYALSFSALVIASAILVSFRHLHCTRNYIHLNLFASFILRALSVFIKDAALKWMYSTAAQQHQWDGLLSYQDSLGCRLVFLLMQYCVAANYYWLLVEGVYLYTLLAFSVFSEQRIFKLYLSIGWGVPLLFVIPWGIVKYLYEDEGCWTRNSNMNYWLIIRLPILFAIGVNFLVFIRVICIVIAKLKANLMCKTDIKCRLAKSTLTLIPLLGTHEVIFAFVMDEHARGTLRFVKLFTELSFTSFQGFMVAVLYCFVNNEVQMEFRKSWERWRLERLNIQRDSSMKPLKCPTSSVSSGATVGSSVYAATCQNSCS
Experimental: Briefly, on day one, 2×10^5 INS-1 cells were plated in each well of a 24-well plate (ThermoFisher Scientific, Waltham, USA) with 500 μL/well culture medium. […] 100 nM liraglutide, as a positive control for cAMP generation, was added to control wells and incubated for 20 min at 37° C. Glucose at lower concentration (2.5 mM) was used as a negative control, and glucose at higher concentration (16 mM) was used as a control for glucose-induced cAMP generation. After 20 minutes of incubation, the medium was aspirated and 200 μl of 0.1N HCl was added to each well. The cells were scraped off from the surface by cell scraper and subjected to centrifugation at 1,000×g for 10 min at 4° C. The supernatant was transferred to new tubes and used for experiment in a 96-well plate. Cyclic AMP levels in the cells were measured at wavelength of 420 nm using SpectraMax M2 microplate reader (Molecular devices, San Jose, USA).

caspase-3 = test: Western blot of activated caspase-3 expression in INS-1 cells; assay type: cell-based, rat; conditions: xx mM glucose, normalized against β-actin, FIGS. 18A/18B
From the text: Cleaved caspase-3 is a key executor in the apoptotic process. In this example, the expression of caspase-3 was detected using western blot analysis.
For the immunoblot analysis, proteins were separated using SDS-PAGE, and then transferred onto a polyvinylidene fluoride (PVDF) membrane. The membrane was probed using antibodies against caspase-3 (Cell Signaling Technology, Danvers, USA), followed by horseradish peroxidase-(HRP) conjugated secondary antibodies (Epitomics, Burlingame, USA). The membrane was visualized using an enhanced chemiluminescence system (GE Healthcare Life Sciences, Buckinghamshire, USA). The levels of protein expression were normalized against β-actin expression.

[1] = in vivo; cited from earlier work

Substance | cell viability (cell proliferation ratio vs 0 hour) (INS-1 cells) | cellular cAMP level (GLP-1 receptor) | expression level of caspase-3 (caspase-3) | serum half-life [1] [h]
GLP-1-Aib^8-EG4-2E-2FA-C16-acid: Aib-substituted GLP-1 agonist having an azide group coupled via CuAAC to alkyne-EG4-2E-2FA-C16-acid (Example 11) (peptide H[Aib]EGTFTSDVSSYLEGQAAK([γGlu-Azidoacetyl])LEFIAWLVRGRG; chain alkynylpropionyl-[PEG4′]K([γGlu-C16 diacid])[PEG4′]K([γGlu-C16 diacid])-OMe; also: triazole at chain A 20 to a chain's N-terminus) | significantly improved | elicited the expected rise in cellular cAMP level | – | –
GLP-1-Aib^8-EG4-2E-2FA-C16: Aib-substituted GLP-1 agonist having an azide group coupled via CuAAC to alkyne-EG4-2E-2FA-C16 (Example 10) (peptide H[Aib]EGTFTSDVSSYLEGQAAK([γGlu-Azidoacetyl])LEFIAWLVRGRG; chain alkynylpropionyl-[PEG4′]K([γGlu-Palmitoyl])[PEG4′]K([γGlu-Palmitoyl])-OMe; also: triazole at chain A 20 to a chain's N-terminus) | significantly improved | elicited the expected rise in cellular cAMP level | can effectively reduce the expression level of caspase-3 | –
albiglutide | – | – | – | 96 to 170
